From paper PMC6358866 (International Journal of Molecular Sciences, 2019)

Legend:
[1] = system: Escherichia coli ATCC 25922 biofilm on CLs; assay: Lipopeptide, lens liquids and combinations against biofilms on CLs after withdrawal of the antimicrobial solution; assay type: cell-based; details: EC biofilm on CLs, all tested concentrations, after withdrawal and 24 h in MHB II
Protocol: (§1) Bacterial strains were obtained from the Polish Collection of Microorganisms (Polish Academy of Science, Wroclaw, Poland). Three Gram-positive and two Gram-negative strains linked with CL-related infections were chosen for the study (Staphylococus aureus ATCC 6538, Staphylococcus epidermidis ATCC 14990, Pseudomonas aeruginosa ATCC 9027, Escherichia coli ATCC 25922, and Enterococcus faecalis ATCC 29212). The bacteria were cultured in a Mueller Hinton Broth II (MHB, Biocorp, Warsaw, Poland) overnight, under aerobic conditions at 37 °C. After incubation, the liquid cultures were centrifuged (2500 rpm for 10 min) and washed with phosphoric buffer (PBS, AppliChem, Darmstadt, Germany) three times and resuspended in fresh MHB II for inoculums appropriate for the performed assays.
(§2) Bacterial biofilms were cultured on commercially available CLs (1-Day Acuvue Moist, containing Etafilcon A, obtained from Johnson and Johnson Vision Care, Jacksonsville, FL, USA). The CLs were placed in polystyrene 24-well plates (Orange Scientific, Braine-l’Alleud, Belgium) in bacterial suspensions in MHB II at initial inoculums of ca. 5 × 10^8 CFU/mL. After 24 h of incubation (aerobic conditions, 120 rpm shaking, 37 °C), all of the CLs were rinsed three times with PBS. […] After incubation, resazurin was added (final concentration per sample = 0.01%) and absorbance was measured as in the assays 4.3 and 4.4. Positive controls contained CLs with bacterial biofilms placed in pure PBS, while sterile CLs incubated in MHB II replaced with PBS served as negative controls. The experiments were performed in triplicate on three different days.
(§3) The assay was also performed for the samples where biofilms on CLs were exposed to pure CL solutions. Positive controls (100%) were biofilms on CLs in PBS, while negative controls were CLs previously incubated in pure MHB II replaced for the exposure time with PBS. After 24 h of exposure (aerobic conditions, 120 rpm shaking, 37 °C) all the solutions were removed, replaced with MHB II and the samples were incubated for another 24 h. Resazurin was then added in order to visualize the results. The results were read, calculated, and presented as in the previously-described sections.

[2] = system: Staphylococcus epidermidis ATCC 14990 biofilm on CLs; assay: as above; assay type: cell-based; details: SE biofilm on CLs, lipopeptide in PBS, after withdrawal and 24 h in MHB II
Protocol: as §1, §2, §3

[3] = system: Enterococcus faecalis ATCC 29212 biofilm on CLs; assay: as above; assay type: cell-based; details: EF biofilm on CLs, after withdrawal and 24 h in MHB II
Protocol: as §1, §2, §3

[4] = system: Pseudomonas aeruginosa ATCC 9027 biofilm on CLs; assay: as above; assay type: cell-based; details: PA biofilm on CLs, all tested concentrations, after withdrawal and 24 h in MHB II
Protocol: as §1, §2, §3

[5] = system: Staphylococus aureus ATCC 6538 biofilm; assay: Effect of the lipopeptide on lens liquids against biofilms on 96-well polystyrene plates; assay type: cell-based, Staphylococcus aureus; details: SA biofilm on polystyrene, lipopeptide alone in PBS, 24 h
Protocol: as §1, with “After incubation, the liquid cultures were centrifuged (2500 rpm for 10 min) and washed with phosphoric buffer (PBS, AppliChem, Darmstadt, Germany) three times and resuspended in fresh MHB II for inoculums appropriate for the performed assays.” left out
Bacterial suspensions were added to 96-well plates (Kartell, Noviglio, Italy) at initial inoculums of ca. 5 × 10^8 CFU/mL and incubated under aerobic conditions with shaking (120 rpm) at 37 °C for 24 h. […] After 1.5 h of incubation, the absorbance was measured at 570 and 600 nm using a microplate reader (Thermo Fisher Scientific, Waltham, MA, USA). […] The metabolic activity of bacteria in the samples was measured according to the following formula:
Positive controls (100%) were wells with pre-grown biofilms where the MHB II was replaced with pure PBS, while negative controls were wells with pure MHB II (also replaced with PBS). After 24 h of incubation (aerobic conditions, 120 rpm shaking, 37 °C), the solutions were replaced with resazurin in MHB II and the results were read and presented as described in Section 4.3.

[6] = system: Staphylococus aureus ATCC 6538 biofilm; assay: Activity against biofilms formed on polystyrene 96-well plates, 24 h exposure, resazurin; assay type: cell-based, Staphylococcus aureus
Protocol: Bacterial strains were obtained from the Polish Collection of Microorganisms (Polish Academy of Science, Wroclaw, Poland). […] The bacteria were cultured in a Mueller Hinton Broth II (MHB, Biocorp, Warsaw, Poland) overnight, under aerobic conditions at 37 °C. After incubation, the liquid cultures were centrifuged (2500 rpm for 10 min) and washed with phosphoric buffer (PBS, AppliChem, Darmstadt, Germany) three times and resuspended in fresh MHB II for inoculums appropriate for the performed assays.
Bacterial suspensions were added to 96-well plates (Kartell, Noviglio, Italy) at initial inoculums of ca. 5 × 10^8 CFU/mL and incubated under aerobic conditions with shaking (120 rpm) at 37 °C for 24 h. […] After exposure, the wells were washed three times with PBS and a solution of resazurin (Sigma Aldrich, St. Louis, MO, USA) in MHB II (0.01%) was added. This cell viability reagent is metabolized by bacterial dehydrogenases upon contact with living cells. As a result, the blue dye is reduced to a pink resorufin. After 1.5 h of incubation, the absorbance was measured at 570 and 600 nm using a microplate reader (Thermo Fisher Scientific, Waltham, MA, USA). […] The metabolic activity of bacteria in the samples was measured according to the following formula:
Metabolic activity (%) = (ΔAbs of sample − ΔAbs of negative control)/(ΔAbs of positive control − ΔAbs of negative control);
ΔAbs = absorbance at 570 nm − absorbance at 600 nm;
The presented results are the means of nine results obtained on three different days.

[7] = system: human cells (keratinocytes, erythrocytes); details: cited from earlier work
Text: PA was also the most difficult strain to eliminate from the surface of CL in the previous study, in which we investigated amphibian peptides and short lipopeptides containing hexadecanoic acid according to their potential application as CL solution additives. The results of performed antimicrobial assays were also very promising. However, due to high toxicity towards human keratinocytes in vitro, the ocular applications of lipopeptides with hexadecanoic acid are not worth further consideration. In contrast to those lipopeptides, the compound with two residues of decanoic aci ... || The excellent antimicrobial activity was previously reported for many lipopeptides. This, along with the relatively low production costs, has encouraged many research groups to study their antimicrobial activities and design molecules with optimal properties. C16-KK-NH2 is one of such extensively studied compounds. […] Other derivatives ...

(C10)2-KKKK-NH2 [Lipopeptide]
regrowth of bacterial population after removal [1]: ca. 50%
concentration permanently removing biofilm from CLs [2]: 16 mg/L
effect on biofilm after removal of the agent [3]: promoted bacterial growth
regrowth of bacterial population after removal [4]: fully restored
concentration at which highly active against biofilm [5]: 32 mg/L
reduction in the metabolic activity ([6]; SA biofilm on polystyrene, 24 h exposure, 32 mg/L and higher): over 90%
MBEC 50 ([6]; lowest concentration reducing metabolic activity by at least 50 ± 5%, polystyrene plate, 24 h exposure in MHB II, resazurin): 8 mg/L
MBEC 90 ([6]; lowest concentration reducing metabolic activity by at least 90 ± 5%, polystyrene plate, 24 h exposure in MHB II, resazurin, mean of nine results): 32 mg/L
toxicity towards human cells in vitro [7]: does not exhibit toxicity
